The record followed here is patent US20080139611A1, “METHODS OF USING 4-PHENYLAMINOQUINOLINES AS TOPICAL NON-STEROIDAL ANTIINFLAMMATORY COMPOUNDS” (priority 2006, published 2008).

Data set [1] relates to PMA-induced ear swelling. In words: PMA-induced mouse ear swelling (topical anti-inflammatory activity). The data set is classed as in vivo, CD-1 (Crl.) derived male mice. Particulars: topical 3 mg/ear applied 30 min before and 15 min after PMA, measured 6 hours after PMA, >=30% considered significant. The procedure:
A compound can be tested for topical anti-inflammatory activity by measuring the degree of inhibition of edema produced in a mouse ear that has been irritated by the application of a solution of a phorbol ester. [2-(7-Trifluoromethyl-quinolin-4-ylamino)-phenyl]-acetic acid sodium salt was tested for its anti-inflammatory activity as follows: Groups of 6 CD-1 (Crl.) derived male mice weighing 24±2 g were used. Phorbol 12-Myristate 13-Acetate (PMA 4 μg in 20 μl of Acetone) was applied topically to the anterior and posterior surfaces of the right ear to each animal. Vehicle (Ethanol:Acetone/1:1, 20 μl/ear) and [2-(7-Trifluoromethyl-quinolin-4-ylamino)-phenyl]-acetic acid sodium salt at 3 mg/ear were each applied 30 minutes before and 15 minutes after Phorbol 12-Myristate 13-Acetate challenge. Indomethacin (3 mg in 20 μl/ear of acetone:ethanol/1:1) as the positive control was similarly applied at the same timing. Ear swelling was then measured by a Dyer model micrometer gauge at 6 hours after Phorbol 12 Myristate 13-Acetate application as an index of inflammation. Percent inhibition was calculated according to the formula: ([Ic−It]/Ic)×100%, where Ic and It refer to increase of ear thickness (mm) in control and treated mice, respectively. Inhibition of 30 percent or more (≧30%) in ear swelling is considered significant anti-inflammatory activity.
[2-(7-Trifluoromethyl-quinolin-4-ylamino)-phenyl]-acetic acid sodium salt caused significant inhibition (80%) of the PMA-induced ear swelling vs vehicle control. […] When [2-(7-Trifluoromethyl-quinolin-4-ylamino)-phenyl]-acetic acid methyl ester was tested in this assay, the inhibition of ear swelling was not significant (20% inhibition).

For data set [2], the target named is T1, COX-1 enzyme (Homo sapiens, UniProt P23219).
T1 construct: Human platelets are used; endogenous in cells; host or cells: human platelets
T1 sequence (P23219 24-599): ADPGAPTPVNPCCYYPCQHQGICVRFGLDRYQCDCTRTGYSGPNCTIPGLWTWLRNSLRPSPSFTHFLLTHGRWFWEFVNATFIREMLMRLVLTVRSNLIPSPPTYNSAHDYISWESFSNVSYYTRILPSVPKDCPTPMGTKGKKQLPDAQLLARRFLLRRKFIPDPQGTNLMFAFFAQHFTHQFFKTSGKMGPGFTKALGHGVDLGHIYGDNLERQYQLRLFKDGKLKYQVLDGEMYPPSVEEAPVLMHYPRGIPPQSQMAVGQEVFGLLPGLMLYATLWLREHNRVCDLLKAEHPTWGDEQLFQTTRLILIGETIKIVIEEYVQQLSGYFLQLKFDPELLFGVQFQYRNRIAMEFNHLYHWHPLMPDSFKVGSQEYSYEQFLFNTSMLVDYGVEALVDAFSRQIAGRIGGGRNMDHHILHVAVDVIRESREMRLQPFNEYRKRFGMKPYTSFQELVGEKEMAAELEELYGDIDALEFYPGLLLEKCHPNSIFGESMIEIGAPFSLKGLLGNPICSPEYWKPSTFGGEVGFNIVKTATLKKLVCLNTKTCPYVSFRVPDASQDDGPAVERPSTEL
Nature of the data set: COX-1 inhibition in human platelets (PGE2 formation, EIA). Type of data set: cell-based. The method, then:
Compounds can be tested for their ability to inhibit the COX-1 enzyme by the following procedure: Human platelets are used. Test compound and/or vehicle is incubated with cells (5×10^7/ml) in modified HEPES buffer pH 7.4 for 15 minutes at 37° C. The reaction is initiated by addition of 100 μM arachidonic acid for another 15 minute incubation period and terminated by further addition of 1 N HCl. An aliquot is removed and the amount of PGE 2 formed is determined spectrophotometrically by enzyme immunoassay (“EIA”) kit.
[2-(7-Trifluoromethyl-quinolin-4-ylamino)-phenyl]-acetic acid hydrochloride was screened at 6 concentrations to test for inhibition of the enzyme: 0.1 μM, 0.3 μM, 1 μM, 3 μM, 10 μM and 30 μM. [2-(7-Trifluoromethyl-quinolin-4-ylamino)-phenyl]-acetic acid hydrochloride inhibited the COX-1 enzyme with an IC50 of <0.1 μM in this assay.

Data set [3] concerns the target T2, Human recombinant Cyclooxygenase-2 (Homo sapiens, UniProt P35354).
T2 construct: purchased Sigma C-0858; host or cells: Sf21 cells
T2 sequence (P35354 18-604): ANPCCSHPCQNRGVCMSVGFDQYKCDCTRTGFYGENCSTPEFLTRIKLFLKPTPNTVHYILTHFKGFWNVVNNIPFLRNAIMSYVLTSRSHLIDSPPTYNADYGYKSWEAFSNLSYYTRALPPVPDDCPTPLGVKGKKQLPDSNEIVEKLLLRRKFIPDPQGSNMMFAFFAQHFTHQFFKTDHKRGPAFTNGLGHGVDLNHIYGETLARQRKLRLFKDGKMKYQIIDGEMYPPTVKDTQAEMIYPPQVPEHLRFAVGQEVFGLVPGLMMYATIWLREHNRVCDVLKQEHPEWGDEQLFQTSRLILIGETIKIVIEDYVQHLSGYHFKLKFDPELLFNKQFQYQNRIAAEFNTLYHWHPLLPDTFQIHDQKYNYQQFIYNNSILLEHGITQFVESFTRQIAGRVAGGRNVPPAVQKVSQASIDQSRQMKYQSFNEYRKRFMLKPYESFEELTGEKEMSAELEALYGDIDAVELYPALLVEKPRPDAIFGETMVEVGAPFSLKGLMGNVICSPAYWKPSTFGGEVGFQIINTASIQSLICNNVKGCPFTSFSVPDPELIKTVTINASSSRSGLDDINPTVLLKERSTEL
In words: COX-2 inhibition, human recombinant enzyme (PGE2 formation, EIA). Type of data set: biochemical. Conditions: human recombinant COX-2 expressed in Sf21 cells; 7 concentrations 0.01-10 μM; 0.3 μM arachidonic acid. The procedure: Compounds can be tested for their ability to inhibit the COX-2 enzyme by the following procedure: Human recombinant Cyclooxygenase-2 expressed in Sf21 cells (Sigma, C-0858) is used. Test compound and/or vehicle is preincubated with 0.11 U cyclooxygenase-2, 1 mM reduced GSH, 500 μM phenol and 1 μM hematin for 15 minutes at 37° C. in Tris-HCl buffer pH 7.7. The reaction is initiated by addition of 0.3 μM arachidonic acid and terminated after 5 minutes by further addition of 1 N HCl. Following centrifugation, substrate conversion to PGE 2 is measured by an Amersham EIA kit.
[2-(7-Trifluoromethyl-quinolin-4-ylamino)-phenyl]-acetic acid hydrochloride was screened at 7 concentrations to test for inhibition of the enzyme: 0.01 uM, 0.03 μM, 0.1 μM, 0.3 μM, 1 μM, 3 μM and 10 μM.

Regarding `O=C([O-])Cc1ccccc1Nc1ccnc2cc(C(F)(F)F)ccc12.[Na+]` [[2-(7-Trifluoromethyl-quinolin-4-ylamino)-phenyl]-acetic acid sodium salt], the “inhibition of PMA-induced ear swelling vs vehicle control” value (“inhibition … vs vehicle control” for short) in data set [1] is 80%.
As usually defined, the melting point is the temperature of the solid-liquid transition. The compound `Cl.O=C(O)Cc1ccccc1Nc1ccnc2cc(Cl)ccc12` returned a melting point of 113 to 116 °C.
As for `COc1ccc2c(c1)c(CC(=O)O)c(C)n2C(=O)c1ccc(Cl)cc1` [Indomethacin, reference compound], the “inhibition … vs vehicle control” value in data set [1] is recorded as 77%.
What is called IC50 is the concentration that gives 50% inhibition. Consider `Cl.O=C(O)Cc1ccccc1Nc1ccnc2cc(C(F)(F)F)ccc12` [[2-(7-Trifluoromethyl-quinolin-4-ylamino)-phenyl]-acetic acid hydrochloride], for which the melting point was 103 to 104 °C. This compound also registered an IC50 in data set [2] (screened at 6 concentrations 0.1-30 μM, 100 μM arachidonic acid) of less than 100 nM. The compound also displayed an IC50 in data set [2] (tested separately at 3 concentrations (0.01, 0.03 and 0.1 μM)) of 81 nM. Besides, in data set [3], the IC50 is 61 nM. Further, the “inhibition … vs vehicle control” value in data set [1] came to 75%.
As for `COC(=O)Cc1ccccc1Nc1ccnc2cc(C(F)(F)F)ccc12` [[2-(7-Trifluoromethyl-quinolin-4-ylamino)-phenyl]-acetic acid methyl ester], in data set [1], the “inhibition … vs vehicle control” value worked out at 20%.
